Measurements: PubChem BioAssay (NCI)
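96-well plates; 48 h exposure; 5 concentrations. Endpoints by linear interpolation between flanking doses. Not reached: highest tested concentration assigned. The concentration for full growth arrest is given as TGI.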

Experiments:
Assay in all cases: DTP human tumour cell line panel, 48 h
SK-OV-3 ovarian = tested on: SK-OV-3 ovarian
SNB-78 CNS = tested on: SNB-78 CNS
RXF 393 renal = tested on: RXF 393 renal
HCC-2998 colon = tested on: HCC-2998 colon
SR leukemia = tested on: SR leukemia
OVCAR-5 ovarian = tested on: OVCAR-5 ovarian
SF-268 CNS = tested on: SF-268 CNS
SNB-19 CNS = tested on: SNB-19 CNS
IGROV1 ovarian = tested on: IGROV1 ovarian
SK-MEL-5 melanoma = tested on: SK-MEL-5 melanoma
NCI-H460 lung = tested on: NCI-H460 lung
SK-MEL-28 melanoma = tested on: SK-MEL-28 melanoma
HCT-15 colon = tested on: HCT-15 colon
DLD-1 colon = tested on: DLD-1 colon
HOP-92 NSCLC = tested on: HOP-92 NSCLC
LXFL 529 NSCLC = tested on: LXFL 529 NSCLC
HT29 colon = tested on: HT29 colon
UACC-257 melanoma = tested on: UACC-257 melanoma
HOP-62 NSCLC = tested on: HOP-62 NSCLC
A498 renal = tested on: A498 renal
CCRF-CEM leukemia = tested on: CCRF-CEM leukemia
EKVX NSCLC = tested on: EKVX NSCLC
UACC-62 melanoma = tested on: UACC-62 melanoma
HL-60(TB) leukemia = tested on: HL-60(TB) leukemia
SF-295 CNS = tested on: SF-295 CNS
KM12 colon = tested on: KM12 colon
M14 melanoma = tested on: M14 melanoma
DMS 114 small cell lung = tested on: DMS 114 small cell lung
SW-620 colon = tested on: SW-620 colon
OVCAR-8 ovarian = tested on: OVCAR-8 ovarian
SN12C renal = tested on: SN12C renal
NCI-H522 lung = tested on: NCI-H522 lung
RPMI-8226 leukemia = tested on: RPMI-8226 leukemia
LOX IMVI melanoma = tested on: LOX IMVI melanoma
OVCAR-4 ovarian = tested on: OVCAR-4 ovarian
SF-539 CNS = tested on: SF-539 CNS
TK-10 renal = tested on: TK-10 renal
SNB-75 CNS = tested on: SNB-75 CNS
786-0 renal = tested on: 786-0 renal
KM20L2 colon = tested on: KM20L2 colon
NCI-H23 lung = tested on: NCI-H23 lung
M19-MEL melanoma = tested on: M19-MEL melanoma
K-562 leukemia = tested on: K-562 leukemia
OVCAR-3 ovarian = tested on: OVCAR-3 ovarian
DMS 273 small cell lung = tested on: DMS 273 small cell lung
HCT-116 colon = tested on: HCT-116 colon
NCI-H226 lung = tested on: NCI-H226 lung
A549 NSCLC = tested on: A549 NSCLC
ACHN renal = tested on: ACHN renal
CAKI-1 renal = tested on: CAKI-1 renal
UO-31 renal = tested on: UO-31 renal
U251 CNS = tested on: U251 CNS
MALME-3M melanoma = tested on: MALME-3M melanoma
COLO 205 colon = tested on: COLO 205 colon

Measured: TGI

c1ccc(-c2sc(-c3ccccc3)c3c2C(c2ccccc2)c2c(-c4ccccc4)sc(-c4ccccc4)c2C3c2ccccc2)cc1 (centres undefined)
> 100 µM: all assays above
